Source: US11198761B2, “Biodegradable polyionenes” (AGENCY FOR SCIENCE, TECHNOLOGY AND RESEARCH, priority 2017, dated 2021)

Legend:
[1] = system: S. aureus, E. coli, P. aeruginosa, C. albicans; assay: Killing kinetics, several strains together; assay type: cell-based
Procedure: 600 μL of 3×10^5 CFU/mL microbial suspension was added to each concentration of the polymer. […] 20 μL of the diluted microbial suspension was then plated onto agar plates and incubated for 24 hours and 42 hours at 37° C. and room temperature for bacteria and fungi respectively, then manually counted for CFU.

[2] = system: P. aeruginosa (ATCC No. 9027); assay: MIC, broth microdilution; assay type: cell-based, Pseudomonas aeruginosa; settings: Gemini-surfactant series S; 18 hours, 37° C.
Procedure: (§1) Bacterial and fungal samples were inoculated according to ATCC's requirement. Briefly, bacteria and fungi were grown in Mueller Hinton Broth (MHB) at 37° C. and room temperature, respectively overnight to allow the microbes to enter the log growth phase with constant 100 rpm shaking. Minimum inhibitory concentration (MIC) of the polymers was determined using the broth microdilution method. 100 μL of 20% v/v water-containing broth with various polymer or Gemini-surfactant concentrations was first added into each well of a 96-well tissue culture plate. The inoculated overnight microbe solution was first diluted to an optical density (O.D.) reading of 0.07 using a microplate reader (TECAN, Switzerland). This will correspond to 3×10^8 CFU/mL based on the McFarland 1 standard solution (CFU=colony forming units). The microbe solution was further diluted 1000 times to achieve a final 3×10^5 CFU/mL. To each well, an equal volume of diluted microbes solution was added and incubated at 37° C. for 18 hours for bacteria samples and at room temperature for 42 hours for fungi samples. There were 6 replicates for each concentration tested, with negative control being microbes added into broth containing 20% v/v deionized water. MIC was taken as the lowest concentration at which there was no observable microbe growth when measured by the microplate reader.

[3] = system: S. aureus (ATCC No. 6538); assay: MIC, broth microdilution; assay type: cell-based, Staphylococcus aureus; settings: Gemini-surfactant series S; 18 hours, 37° C.
Procedure: as §1

E. coli biofilms [4] = assay: XTT assay for cell viability of biofilms; assay type: cell-based, Escherichia coli; settings: 18 hours treatment
Procedure: (§2) The bacteria stock was diluted in Mueller Hinton Broth (MHB) to get an optical density (OD) reading of 0.07 at 600 nm. 48 wells of a 96 flat-well plate were plated with 100 μL of bacteria suspension each. The plate was then incubated at 37° C. Every day over the next 7 days, MHB was carefully removed from the plate so as not to disturb the biofilm at the bottom of the well, and replaced with 100 μL of fresh MHB to each well.
(§3) After the biofilm was cultured, at the end of 7 days, MHB was removed from the wells. The biofilms were washed carefully with PBS 3 times to remove planktonic cells. The surfactant was weighed in a micro-centrifuge tube, and the weighed sample was diluted to 10,000 mg L^−1 using distilled water. Serial dilution was conducted to obtain surfactant solutions having concentrations of 100 mg L^−1, 70 mg L^−1, 50 mg L^−1, 35 mg L^−1, 25 mg L^−1, 20 mg L^−1, and 10 mg L^−1. The solvent was 20% distilled water and 80% MHB for each solution. The control was 20% distilled water and 80% MHB without surfactant. The surfactant solutions of different concentrations were added to the wells, 100 μL into each, with 6 replicates for each concentration. The plate was then incubated at 37° C. for 18 hours. […] At the end of the incubation period, the optical density (OD) reading of the plate was taken at 490 nm.

S. aureus biofilms [5] = assay: Biofilm biomass assay (safranin O); assay type: cell-based, Staphylococcus aureus; settings: 18 hours treatment
Procedure: as §2
as §3, with “10000” for “10,000”, “of” for “having”, “concentrations” for “concentrations of”, “was” for “was then”, “550” for “490”

[6] = system: C. albicans (ATCC No 10231); assay: MIC, broth microdilution; assay type: cell-based, Candida albicans; settings: Gemini-surfactant series S; 42 hours, room temperature
Procedure: as §1

E. coli biofilms [7] = assay: Biofilm biomass assay (safranin O); assay type: cell-based, Escherichia coli; settings: 18 hours treatment
Procedure: as §2
as §3, with “10000” for “10,000”, “of” for “having”, “concentrations” for “concentrations of”, “was” for “was then”, “550” for “490”

[8] = system: rat red blood cells (rRBCs); assay: Hemolysis assay; assay type: cell-based; settings: Gemini-surfactant series S; 1 hour, 37° C.
Procedure: Freshly obtained rat red blood cells (rRBC) from the Animal Handling Unit of Biomedical Research Center (Singapore) was used to test the hemolytic activity of the polymers and Gemini-surfactants. The rRBC was diluted to 4% v/v with phosphate-buffered saline (PBS) and added to an equal volume of 0.2% v/v Triton-X solution. A microplate reader was used to measure the optical density (O.D.) reading to make sure the value is between 0.5 and 0.6. An equal volume of different polymer or Gemini-surfactant concentrations was added to the diluted blood and incubated for 1 hour at 37° C. The samples were centrifuged at 1000 g at 4° C. for 5 minutes and 100 μL of the supernatant was collected and transferred to a 96-well tissue culture plate. There were 4 replicates for each concentration. Haemoglobin release was measured using the microplate reader at 576 nm. rRBCs treated with PBS were used as the […] control, while those treated with 0.2% v/v Triton-X was used as the […] control.
Percentage of hemolysis was calculated as follows: Hemolysis (%)═[(O.D.576 nm of the treated sample−O.D.576 nm of negative control)/(O.D.576 nm of positive control−O.D.576 nm of negative control)]×100%
HC50 was taken as the polymer concentration at which the polymer causes 50% hemolysis.

[9] = system: S. aureus, E. coli, P. aeruginosa, C. albicans; assay: Killing efficiency test (CFU on agar after MIC testing); assay type: cell-based; settings: at MIC and 2×MIC, all the microbes
Procedure: After MIC testing, all solutions from the control, ½MIC, MIC and 2MIC wells were collected and subjected to a series of ten-fold dilution. 20 μL of the diluted microbe solution was streaked onto pre-casted agar plates using LB+1.5% agar from the first Base. Agar plates with bacteria samples were incubated at 37° C. for 18 hours while those with fungi samples were incubated for 42 hours at room temperature before the CFUs were counted.

E. coli (ATCC No. 25922) = assay: MIC, broth microdilution; assay type: cell-based, Escherichia coli; settings: Gemini-surfactant series S; 18 hours, 37° C.
Procedure: as §1

S. aureus biofilms [10] = assay: XTT assay for cell viability of biofilms; assay type: cell-based, Staphylococcus aureus; settings: 18 hours treatment
Procedure: as §2, §3

K. pneumoniae 8637 [11] = assay: Efficacy (ED50/ED95) in K. pneumoniae 8637-induced pneumonia; assay type: in vivo; settings: immunosuppressed mice, intraperitoneally once daily for 3 days, survival over 5 days, BLISS method
Procedure: ICR mice (female, 7 weeks old, 24-26 mg) were used for the in vivo studies. Immunosuppression was induced by intraperitoneal injection of 200 mg/Kg cyclophosphamide (Hengrui Corp, Jiangsu Province, P. R. China) 4 days prior to infection. Mice were anesthetized by intra-peritoneal injection of 1% pentobarbital (40 mg/kg, Sigma).
The immunosuppression of mice was induced as described above. Overnight cultures of K. pneumoniae 8637 were harvested and suspended in PBS. Before instillation with K. pneumoniae 8637, the mice were anesthetized using an intraperitoneal injection with 1% pentobarbital (40 mg/kg). Each of the immunosuppressed mice was infected intranasally with 0.03 mL of the bacterial suspension at designated doses (i.e. 1×10^9, 1.5×10^9, 2.3×10^9, 3.5×10^9, 5.3×10^9, 8.0×10^9 CFU/ml, four mice per group). The minimum lethal dose was defined as the lowest dose, which was sufficient to cause 100% mortality. It was determined from the survival rate of mice at 5 days post-infection by the BLISS method.
The number of surviving mice in each group was recorded for 5 days to assess ED50 by the BLISS method.

K. pneumoniae 8637 [12] = assay: Survival of K. pneumoniae 8637-infected mice; assay type: in vivo; settings: 2.0 mg/kg intraperitoneally once daily for 3 days, five days, n=10
Procedure: ICR mice (female, 7 weeks old, […]) were used for the in vivo studies. Immunosuppression was induced by intraperitoneal injection of 200 mg/Kg cyclophosphamide (Hengrui Corp, Jiangsu Province, P. R. China) 4 days prior to infection. Mice were anesthetized by intra-peritoneal injection of 1% pentobarbital (40 mg/kg, Sigma).
To investigate the in vivo antibacterial efficacy of P-1a-1 (6037B), a pneumonia mouse model was established. The immunosuppression of mice was induced as described above. Overnight cultures of K. pneumoniae 8637 were harvested and suspended in PBS. Before instillation with K. pneumoniae 8637, the mice were anesthetized using an intraperitoneal injection with 1% pentobarbital (40 mg/kg). […] It was determined from the survival rate of mice at 5 days post-infection by the BLISS method.
To further determine the in vivo therapeutic efficacy of P-1a-1 (6037B), survival of the K. pneumoniae 8637-infected mice was monitored with and without treatment. […] After being anesthetized, each of the immunosuppressed mice was inoculated intranasally with 0.03 mL of bacterial suspension at the minimum lethal dose determined above. […] The mice were monitored for a period of five days, and the number of surviving mice in each group was recorded. […]

MIC PA [2]	MIC SA [3]	MIC CA [6]	MIC EC (E. coli (ATCC No. 25922))	SMILES	killing of all four strains of microbes ([1]; 16 and 32×MIC, 2 minutes)	concentration needed to completely eradicate the microbes ([1]; 30 seconds)	biofilm cell viability (E. coli biofilms [4])	biomass of biofilm (S. aureus biofilms [5])	biomass of biofilm (E. coli biofilms [7])	Hemolysis, HC50 [8]	reduction in the colony forming units (CFU) [9]	biofilm cell viability (S. aureus biofilms [10])	ED50 (K. pneumoniae 8637 [11]; Klebsiella pneumoniae, 8637, ip)	ED95 (K. pneumoniae 8637 [11])	survival (K. pneumoniae 8637 [12])
8 ppm	1 ppm	2 ppm	1 ppm	CCCCCCCCCC[N+](C)(C)Cc1ccc(C(=O)NCCCCCCNC(=O)c2ccc(C[N+](C)(C)CCCCCCCCCC)cc2)cc1.[Cl-].[Cl-] [S-3g]	completely killed	64 ×MIC	reduced in a dose dependent manner	reduced in a dose dependent manner	reduced in a dose dependent manner	125-250 ppm	≥ 99.9%	reduced in a dose dependent manner			
				C[C@@H](O)[C@H]1C(=O)N2C(C(=O)O)=C(SCCN=CN)C[C@H]12 [imipenem]									2.75 mg/kg	20.0 mg/kg	60%
